Test results taken from patent publication US20260199294A1, “PEPTIDE DRUG CONJUGATES” (Oncopeptides Innovation AB, priority 2022, published 2026).
Entries after “also recorded” stand apart in the source; their conditions may differ.

System: SU-DHL-4 human lymphoma cell line xenografts
Test: Chicken embryo (in ovo) xenograft model, tumour weight
Type: in vivo
Conditions: 8.4, 33.5, 167.5 μM
Description: Methods: Inoculation of Fertilized White Leghorn eggs was performed with 3×10^6 SU-DHL-4 tumour cells on day 9 (post-fertilisation). Viable eggs were injected with 100 μL of either Example compound 1 (8.4 μM (0.008 mg/kg), 33.5 μM (0.033 mg/kg), 167.5 μM (0.164 mg/kg)), bendamustine (8.4 μM (0.005 mg/kg), 33.5 μM (0.02 mg/kg), 167.5 μM (0.1 mg/kg)) or vehicle on day 11, 13, 15 and 17. On day 18, tumours were removed and weighed.

## CCOC(=O)[C@H](CC(C)C)NC(=O)[C@@H](N)CCc1nc2cc(N(CCCl)CCCl)ccc2n1C [Example compound 1, Ethyl (2S)-2-[[(2S)-2-amino-4-[5-[bis(2-chloroethyl)amino]-1-methyl-benzimidazol-2-yl]butanoyl]amino]-4-methyl-pentanoate]
  effect on tumour weight / tumour growth (in words): dose dependent effect on tumour weight; also recorded: particularly effective at inhibiting tumor growth
